In the supplement of paper PMC5908809:

Assays:
Experiment in all cases: relative IC50 (inflection point of fitted viability curve, relative to fitted max inhibition); higher = less sensitive
Settings in all cases: 72 h
[1] = test system: normal primary NK cells, pool 3 (3 donors) (IL-2 2.5 ng/mL)
Procedure: (§1)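 Drug sensitivity and resistance testing: 5 concentrations over a 10,000-fold range, 72 h at 37 °C, viability by CellTiter-Glo normalised to DMSO and benzethonium chloride controls. IC50 is the inflection point of a logistic fit (min fixed at 0, max fitted), so it is relative to the fitted maximal inhibition. Kept only where fitted max inhibition is at least 50%.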

[2] = test system: normal primary NK cells, pool 1 (3 donors), resting (IL-2 0 ng/mL)
Procedure: as §1

IMC-1 (IL-2 20 ng/mL) = test system: IMC-1 (IL-2 20 ng/mL)
Procedure: as §1

SNK-6 (IL-2 2.5 ng/mL) = test system: SNK-6 (IL-2 2.5 ng/mL)
Procedure: as §1

KAI3 (IL-2 2.5 ng/mL) = test system: KAI3 (IL-2 2.5 ng/mL)
Procedure: as §1

NK-92 (IL-2 2.5 ng/mL) = test system: NK-92 (IL-2 2.5 ng/mL)
Procedure: as §1

NK-YS (IL-2 2.5 ng/mL) = test system: NK-YS (IL-2 2.5 ng/mL)
Procedure: as §1

YT (IL-2 2.5 ng/mL) = test system: YT (IL-2 2.5 ng/mL)
Procedure: as §1

DERL-7 (IL-2 2.5 ng/mL) = test system: DERL-7 (IL-2 2.5 ng/mL)
Procedure: as §1

NKL (IL-2 2.5 ng/mL) = test system: NKL (IL-2 2.5 ng/mL)
Procedure: as §1

KHYG-1 (IL-2 2.5 ng/mL) = test system: KHYG-1 (IL-2 2.5 ng/mL)
Procedure: as §1

[3] = test system: normal primary NK cells, pool 2 (3 donors) (IL-2 2.5 ng/mL)
Procedure: as §1

Row | Structure (SMILES) | relative IC50 [1] | relative IC50 [2] | relative IC50 (IMC-1 (IL-2 20 ng/mL)) | relative IC50 (SNK-6 (IL-2 2.5 ng/mL)) | relative IC50 (KAI3 (IL-2 2.5 ng/mL)) | relative IC50 (NK-92 (IL-2 2.5 ng/mL)) | relative IC50 (NK-YS (IL-2 2.5 ng/mL)) | relative IC50 (YT (IL-2 2.5 ng/mL)) | relative IC50 (DERL-7 (IL-2 2.5 ng/mL)) | relative IC50 (NKL (IL-2 2.5 ng/mL)) | relative IC50 (KHYG-1 (IL-2 2.5 ng/mL)) | relative IC50 [3]
1 | CS(=O)(=O)c1ccc(C2=C(c3ccccc3)C(=O)OC2)cc1 [Rofecoxib] | > 10000 nM | > 10000 nM | – | – | – | – | – | – | – | – | – | –
2 | Cc1ccc(C(=O)N(CCCN)[C@@H](c2oc3cc(Cl)ccc3c(=O)c2Cc2ccccc2)C(C)C)cc1 | – | – | 3.17 nM | 4.13 nM | 10.9 nM | 20.9 nM | 3.75 nM | 24.2 nM | 21.8 nM | 5.2 nM | 3.04 nM | –
3 | CCNC(=O)CCC/C=C\C[C@@H]1[C@@H](/C=C/[C@@H](O)CCc2ccccc2)[C@H](O)C[C@@H]1O [Bimatoprost] | > 5500 nM | – | > 5500 nM | – | > 5500 nM | > 5500 nM | > 5500 nM | > 5500 nM | > 5500 nM | – | > 5500 nM | > 5500 nM
4 | CCn1nnc2c(N3CCOCC3)nc(-c3ccc(NC(=O)Nc4ccc(C(=O)N5CCN(C)CC5)cc4)cc3)nc21 [PKI-402] | – | – | – | 210 nM | 90.9 nM | 428 nM | 154 nM | 208 nM | 89.1 nM | 97.1 nM | 316 nM | –
5 | Cc1c(NC(=O)OC[C@@H]2COCCN2)cn2ncnc(Nc3ccc4c(cnn4Cc4cccc(F)c4)c3)c12 | – | 3970 nM | – | – | 3180 nM | 2400 nM | – | – | 2730 nM | 3110 nM | 2230 nM | 3090 nM
6 | O=C(c1cccc(Cl)c1F)N1CCN(Cc2cccc(Nc3nccs3)n2)CC1 [MK-8745] | > 2500 nM | – | 709 nM | 204 nM | – | – | 203 nM | – | 376 nM | – | – | > 2500 nM
7 | CCc1c(C(=O)C(N)=O)c2c(OCC(=O)O)cccc2n1Cc1ccccc1 [Varespladib] | – | – | > 10000 nM | – | – | – | – | – | – | – | – | –
8 | COc1cc2ncnc(Nc3ccc(F)c(Cl)c3)c2cc1NC(=O)/C=C/CN1CCCCC1 [Dacomitinib] | – | 404 nM | – | – | – | – | – | – | – | – | – | –
9 | Cc1cn(-c2cc(NC(=O)c3ccc(C)c(Nc4nccc(-c5cccnc5)n4)c3)cc(C(F)(F)F)c2)cn1 [Nilotinib] | > 10000 nM | – | – | – | – | – | – | – | – | 869 nM | – | –
10 | COc1ccc(S(=O)(=O)Nc2cccnc2Nc2ccc(O)cc2)cc1 [ABT-751] | – | – | 283 nM | 76.1 nM | 243 nM | 122 nM | 135 nM | 207 nM | 294 nM | 381 nM | 196 nM | –
11 | CO[C@@]12[C@H](COC(N)=O)C3=C(C(=O)C(C)=C(N)C3=O)N1C[C@@H]1N[C@@H]12 [Mitomycin C] | 1410 nM | 1630 nM | 2710 nM | 423 nM | 1060 nM | 1510 nM | 350 nM | 3200 nM | – | 152 nM | 432 nM | 1010 nM
12 | CN(C[C@@H]1COCCO1)S(=O)(=O)Nc1ccc2ccc3ncc(-c4cnn(C)c4)cc3c(=O)c2c1 [MK-2461] | > 10000 nM | – | – | – | – | – | – | – | 1770 nM | – | – | –
13 | CC(C)N(CCCNC(=O)Nc1ccc(C(C)(C)C)cc1)C[C@H]1O[C@@H](n2cc(Br)c3c(N)ncnc32)[C@H](O)[C@@H]1O [SGC0946] | – | 3660 nM | – | – | 2540 nM | – | – | – | – | – | – | –
14 | N[C@@H]1CCCN(c2c(/C=C3\SC(=O)NC3=O)cccc2-c2ccccc2)C1 [AZD1208] | – | – | > 10000 nM | – | – | – | – | – | 304 nM | – | – | –
15 | N.N.[Cl][Pt][Cl] [Cisplatin] | 15600 nM | – | 515 nM | – | – | – | – | – | – | – | – | 14800 nM
16 | CC(C)n1nc(-c2ccc3oc(N)nc3c2)c2c(N)ncnc21 [INK128] | – | – | – | – | 22.8 nM | 21.7 nM | 51 nM | 28.2 nM | 15.1 nM | 8.91 nM | 124 nM | –

Row | Structure (SMILES) | relative IC50 [1] | relative IC50 [2] | relative IC50 (IMC-1 (IL-2 20 ng/mL)) | relative IC50 (SNK-6 (IL-2 2.5 ng/mL)) | relative IC50 (KAI3 (IL-2 2.5 ng/mL)) | relative IC50 (NK-92 (IL-2 2.5 ng/mL)) | relative IC50 (NK-YS (IL-2 2.5 ng/mL)) | relative IC50 (YT (IL-2 2.5 ng/mL)) | relative IC50 (DERL-7 (IL-2 2.5 ng/mL)) | relative IC50 (NKL (IL-2 2.5 ng/mL)) | relative IC50 (KHYG-1 (IL-2 2.5 ng/mL)) | relative IC50 [3]
17 | O=c1ncn2nc(Sc3ccc(F)cc3F)ccc2c1-c1c(Cl)cccc1Cl [VX 745] | – | – | – | – | 779 nM | – | – | – | – | 719 nM | – | –
18 | Cn1cc(-c2ccc3nnc(Sc4ccc5ncccc5c4)n3n2)cn1 [SGX-523] | – | – | > 5000 nM | – | – | – | – | – | – | – | > 5000 nM | –
19 | CCNC(=O)Nc1ccc(-c2nc3c(c(N4CCOC[C@@H]4C)n2)CCN(C2COC2)C3)cc1 [RG-7603] | – | – | > 2500 nM | – | – | – | – | – | 156 nM | 185 nM | – | –
20 | Nc1cccc2c1CN(C1CCC(=O)NC1=O)C2=O (centres undefined) [Lenalidomide] | – | 6060 nM | – | 3460 nM | 17100 nM | – | – | – | > 100000 nM | – | – | –
21 | CCCCCOC(=O)Nc1nc(=O)n([C@@H]2O[C@H](C)[C@@H](O)[C@H]2O)cc1F [Capecitabine] | – | – | > 10000 nM | 1630 nM | 1080 nM | – | – | – | 2520 nM | – | > 10000 nM | –
22 | CON(C)C(=O)N1N=C(c2cc(F)ccc2F)S[C@@]1(CCCN)c1ccccc1 [Filanesib] | – | – | 3.15 nM | – | – | – | – | – | – | – | – | –
23 | COc1cc2c(Oc3ccc(NC(=O)C4(C(=O)Nc5ccc(F)cc5)CC4)cc3F)ccnc2cc1OCCCN1CCOCC1 [Foretinib] | – | – | – | – | – | – | 191 nM | – | 369 nM | – | – | –
24 | C[C@]12C=CC(=O)C=C1CC[C@@H]1[C@@H]2C(=O)C[C@@]2(C)[C@H]1CC[C@]2(O)C(=O)CO [Prednisone] | – | – | – | – | – | – | – | – | – | – | – | > 10000 nM
25 | CCN(CC)CCCC(C)Nc1ccnc2cc(Cl)ccc12 (centres undefined) [Chloroquine] | 9060 nM | – | 33400 nM | – | – | – | – | – | – | – | – | 14300 nM
26 | Cc1c(C(=O)Nc2ccc(N3C[C@@H](C)O[C@@H](C)C3)nc2)cccc1-c1ccc(OC(F)(F)F)cc1 [Sonidegib] | – | – | 2250 nM | – | – | 1150 nM | – | – | – | – | – | –
27 | CO[C@H]1C[C@@H]2CC[C@@H](C)[C@@](O)(O2)C(=O)C(=O)N2CCCC[C@H]2C(=O)O[C@H]([C@H](C)C[C@@H]2CC[C@@H](O)[C@H](OC)C2)CC(=O)[C@H](C)/C=C(\C)[C@@H](O)[C@@H](OC)C(=O)[C@H](C)C[C@H](C)/C=C/C=C/C=C/1C [Sirolimus] | – | – | – | 0.8 nM | 2.41 nM | – | 1.01 nM | – | 5 nM | 0.3 nM | 6.55 nM | –
28 | CNC(=O)c1ccc(C)c(-n2c(C)cc(OCc3ccc(F)cc3F)c(Br)c2=O)c1 | – | – | – | > 1000 nM | – | – | – | – | – | – | – | –
29 | CON(C)C(=O)N1N=C(c2cc(F)ccc2F)S[C@@]1(CCCN)c1ccccc1 [ARRY-520] | – | > 1000 nM | – | 2.57 nM | – | 10.2 nM | 3.86 nM | 22.9 nM | 3.14 nM | 5.25 nM | 3.25 nM | –
30 | CCC1=C[C@@H]2CN(C1)Cc1c([nH]c3ccccc13)[C@@](C(=O)OC)(c1cc3c(cc1OC)N(C)[C@H]1[C@@](O)(C(=O)OC)[C@H](OC(C)=O)[C@]4(CC)C=CCN5CC[C@]31[C@@H]54)C2 [Vinorelbine] | – | 1460 nM | 3.26 nM | 2.95 nM | 7.28 nM | 23.2 nM | 5.98 nM | 7.29 nM | 5.07 nM | 3.89 nM | 8.26 nM | –
31 | CC[C@@H]1C(=O)N(C)c2cnc(Nc3ccc(C(=O)N[C@H]4CC[C@H](N5CCN(CC6CC6)CC5)CC4)cc3OC)nc2N1C(C)C [Volasertib] | – | – | 30 nM | 6.44 nM | 26.5 nM | 12.6 nM | 24.3 nM | 29 nM | 19.6 nM | 36.2 nM | 28.3 nM | –
32 | O=C(NOCC1CC1)c1ccc(F)c(F)c1Nc1ccc(I)cc1Cl | – | – | 2220 nM | 3940 nM | 608 nM | 3220 nM | 1650 nM | 1850 nM | 1310 nM | 153 nM | 851 nM | –
